Assays:
lymphocytes [1] = details: in vitro; cited from earlier work
[2] = system: human breast cancer cells; details: cited from earlier work
lymphocytes [3] = details: cancer patients, intravenous administration; cited from earlier work
melanoma = details: cited from earlier work; for side effects: compared with bryostatin 1, melanoma treatment; for effectiveness in treating melanoma: compared with bryostatin 1
E. sertula = assay: gentamicin treatment of B. neritina larvae, E. sertula and KSa levels by specific PCR; design: species or system Candidatus Endobugula sertula; details: about 100 micrograms per milliliter for about seven days post-settlement, grown out 3 months, vs untreated controls
Experimental: (§1) B. neritina larvae were treated with gentamicin at about 100 micrograms per milliliter for about seven days post-settlement, grown out for 3 months to re-establish their commensal bacterial flora, and then assayed for E. sertula levels and KSa levels by specific PCR and bryostatin activity by phorbol dibutyrate displacement (PdBu) assay (FIG. 7). The standard method for detecting bryostatins is the PdBu displacement assay (DeVries et al., 1988). Rat brain liposomes are incubated with tritiated PdBu, which binds to PKC in the liposomes. The liposomes are collected by filtration and counted in a scintillation counter. If an extract is added that contains a compound that can compete with phorbol for binding, less tritiated PdBu is bound. The assay has a subnanomolar detection limit for pure bryostatin 1 and is suitable for milligram quantities of sample. In B. neritina, the only compounds with PdBu activity are bryostatins, and PdBu activity is a good measure of total bryostatin activity.

B. neritina = assay: gentamicin treatment of B. neritina larvae, bryostatin activity and growth of colonies; design: species or system Bugula neritina; details: about 100 micrograms per milliliter for about seven days post-settlement
Experimental: as §1

CCC/C=C/C=C/C(=O)O[C@H]1/C(=C/C(=O)OC)C[C@H]2C[C@H]([C@@H](C)O)OC(=O)C[C@H](O)C[C@@H]3C[C@H](OC(C)=O)C(C)(C)[C@](O)(C[C@@H]4C/C(=C/C(=O)OC)C[C@H](/C=C/C(C)(C)[C@]1(O)O2)O4)O3 [bryostatin 1]
effect on lymphocytes in combination with IL-2 (lymphocytes [1]): enhances proliferation and IL-2 receptor expression on lymphocytes | sensitization to the cytotoxic effects of gemcitabine [2]: sensitized human breast cancer cells to the cytotoxic effects of gemcitabine | effect on IL-2-induced lymphocyte activity in patients (lymphocytes [3]): increased the potential of IL-2 to induce proliferation of LAK activity in lymphocytes

COC(=O)/C=C1/C[C@H]2C[C@]3(O)O[C@H](C[C@@H](O)CC(=O)O[C@@H]([C@@H](C)O)C[C@H]4C/C(=C\C(=O)OC)[C@H](OC(C)=O)[C@@](O)(O4)C(C)(C)/C=C/[C@@H](C1)O2)C[C@H](OC(=O)CC(C)C)C3(C)C [bryostatin 5]
side effects (melanoma): milder side effects | effectiveness in treating melanoma (melanoma): as effective as bryostatin 1

bryostatin 8
side effects (melanoma): milder side effects | effectiveness in treating melanoma (melanoma): as effective as bryostatin 1

gentamicin
KSa levels (E. sertula; specific PCR): reduced dramatically | E. sertula population (E. sertula; FIG. 7): reduced dramatically | bryozoan growth rates, treated versus untreated colonies (B. neritina): the same | bryostatin activity of treated colonies (PdBu assay) (B. neritina; grown out 3 months, vs untreated controls): reduced
